Measured values as given in US20190358181A1, “METHODS FOR AUTISM SPECTRUM DISORDER PHARMACOTHERAPY” (priority 2017, published 2019).

Tested on: 610 metabolites from 63 biochemical pathways
Test: Targeted broad-spectrum plasma metabolomic analysis (LC-MS/MS), paired pre-infusion vs post-infusion (2-days and 6-weeks)
Format: in vivo, human
Details: for Linear Ratio / VIP Score / Z Abs / Z Score: plasma
Method: Targeted, broad-spectrum, plasma metabolomic analysis of 610 metabolites from 63 biochemical pathways was performed by high performance liquid chromatography and tandem mass spectrometry (LC-MS/MS) on the samples collected from patients in Example 1. Venous blood was collected between the hours of 8 am and 5 pm, at least 3 hours after the last meal, into lithium-heparin vacutainer tubes (BD #367884). Plasma was separated by centrifugation at 900 g×10 minutes at room temperature within one hour of collection. The resulting fresh lithium-heparin plasma was transferred to labeled 1.2 ml or 2.0 ml externally threaded cryotubes with a minimum headspace air gap for storage at −80° C. for analysis. Samples were analyzed on an AB SCIEX QTRAP 5500 triple quadrupole mass spectrometer equipped with a Turbo V electrospray ionization (ESI) source, Shimadzu LC-20A UHPLC system, and a PAL CTC autosampler. Typically, 90 μl of plasma was thawed on ice and transferred to a 1.7 ml Eppendorf tube. Five (5.0) μl of a cocktail containing 25-35 commercial stable isotope internal standards, and 5.0 μl of 57 stable isotope internal standards that were custom-synthesized in E. coli NCM3722, Caenorhabditis elegans N2, and Komagataella phaffii (ATCC 76273; formerly known as Pichia pastoris) by metabolic labeling with 13C-glucose and 13C-bicarbonate, were added, mixed, and incubated for 10 min at 20° C. to permit small molecules and vitamins in the internal standards to associate with plasma binding proteins. Macromolecules (protein, DNA, RNA, glycans, etc.) were precipitated by extraction with 4 volumes (400 μl) of cold (−20° C.), acetonitrile:methanol (50:50) (LCMS grade, Cat #LC015-2.5 and GC230-4, Burdick & Jackson, Honeywell), vortexed vigorously, and incubated on crushed ice for 10 min, then removed by centrifugation at 16,000 g×10 min at 4° C. The supernatants containing the extracted metabolites and internal standards in the resulting 40:40:20 solvent mix of acetonitrile:methanol:water were transferred to labeled cryotubes and stored at −80° C. for LCMS/MS analysis.
LC-MS/MS analysis was performed by scheduled multiple reaction monitoring (sMRM) under Analyst v1.6.2 software control in both negative and positive mode with rapid polarity switching (50 ms). Nitrogen was used for curtain gas (set to 30), collision gas (set to high), ion source gas 1 and 2 (set to 35). The source temperature was 500° C. Spray voltage was set to −4500 V in negative mode and 5500 V in positive mode. The values for Q1 and Q3 mass-to-charge ratios (m/z), declustering potential (DP), entrance potential (EP), collision energy (CE), and collision cell exit potential (CXP) were determined and optimized for each MRM for each metabolite. Ten microliters of extract was injected by PAL CTC autosampler via a 10 μl stainless steel loop into a 250 mm×2.0 mm, 4 μm polymer based NH2 HPLC column (Asahipak NH2P-40 2E, Showa Denko America, Inc., NY) held at 25° C. for chromatographic separation. The mobile phase was solvent A: 95% water with 20 mM (NH4)2CO3 (Sigma, Fluka Cat #74415-250G-F), 5% acetonitrile, and 38 mM NH4OH (Sigma, Fluka Cat #17837-100ML), final pH 9.75; solvent B: 100% acetonitrile. Separation was achieved using the following gradient: 0-3.5 min: 95% B, 3.6-8 min: 85% B, 8.1-13 min: 75% B, 13.5-35 min: 0% B, 36-46 min: 95% B, 46.1 min: end. The flow rate was 200 μl/min. Pump pressures ranged from 920-2600 psi over the course of the gradient. All the samples were kept at 4° C. during analysis. The chromatographic peaks were identified using MultiQuant (v3.0, Sciex), confirmed by manual inspection, and the peak areas integrated. […]

[1] = Fatty Acid Oxidation and Synthesis, 6-weeks
[2] = GABA, Glutamate, Arginine, Ornithine, Proline, 6-weeks
[3] = GABA, Glutamate, Arginine, Ornithine, 2-days
[4] = Gamma-Glutamyl and other Dipeptides, 2-days
[5] = Gamma-Glutamyl and other Dipeptides, 6-weeks
[6] = Gamma-glutamyl-Alanine, 6-weeks
[7] = Glycolysis and Gluconeogenesis Metabolism, 2-days
[8] = Glycolysis and Gluconeogenesis Metabolism, 6-weeks
[9] = Glycosphingolipid Metabolism, 2-days
[10] = Hexose Disaccharide Pool, 6-weeks
[11] = Histidine, Histamine, Carnosine Metabolism, 2-days
[12] = Histidine, Histamine, Carnosine Metabolism, 6-weeks

In the case of Cc1ccc(C(=O)Nc2ccc(S(=O)(=O)O)c3cc(S(=O)(=O)O)cc(S(=O)(=O)O)c23)cc1NC(=O)c1cccc(NC(=O)Nc2cccc(C(=O)Nc3cc(C(=O)Nc4ccc(S(=O)(=O)O)c5cc(S(=O)(=O)O)cc(S(=O)(=O)O)c45)ccc3C)c2)c1 [Suramin, suramin], the Increased [1] is reported as 0, the “Observed Hits in the Top 48 Metabolites” value [1] is reported as 3 and the Decreased [2] is reported as 0. The “Fold Enrichment (Obs/Exp)” value [2] was 3.0, the “Fraction of Impact (VIP Score) Explained (% of 94.6)” value (shortened to “Fraction of Impact … (% of 94.6)”) [2] was 4% and the “Impact (Sum VIP Score)” value [2] was 3.9. The Increased [2] was 2, the “Observed Hits in the Top 48 Metabolites” value [2] was 2 and the Decreased [3] was 0. For the same compound, the “Fold Enrichment (Obs/Exp)” value [3] was 3.5, the “Fraction of Impact (VIP Score) Explained (% of 119.7)” value (“Fraction of Impact … (% of 119.7)” for short) [3] was 4% and the “Impact (Sum VIP Score)” value [3] was 4.7. For the same compound, the Increased [3] was 3, the “Observed Hits in the Top 61 Metabolites” value [3] was 3 and the Decreased [4] was 0. For the same compound, the “Fold Enrichment (Obs/Exp)” value [4] was 7.1, the “Fraction of Impact … (% of 119.7)” value [4] was 3% and the “Impact (Sum VIP Score)” value [4] was 3.8. The Increased [4] was 2, the “Observed Hits in the Top 61 Metabolites” value [4] was 2 and the Decreased [5] was 0. The “Fold Enrichment (Obs/Exp)” value [5] was 4.5, the “Fraction of Impact … (% of 94.6)” value [5] was 2% and the “Impact (Sum VIP Score)” value [5] was 2.4. For the same compound, the Increased [5] was 1, the “Observed Hits in the Top 48 Metabolites” value [5] was 1 and the “Linear Ratio” value [6] was 1.644. The “VIP Score” value [6] was 2.353, the “Z Abs” value [6] was 1.725 and the “Z Score” value [6] was 1.725. The “Linear Ratio” value (Glycerol 3-phosphate, 6-weeks) was 1.294, the “VIP Score” value (Glycerol 3-phosphate, 6-weeks) was 2.081 and the “Z Abs” value (Glycerol 3-phosphate, 6-weeks) was 1.731. The “Z Score” value (Glycerol 3-phosphate, 6-weeks) was 1.731, the “Linear Ratio” value (Glycine, 6-weeks) was 1.392 and the “VIP Score” value (Glycine, 6-weeks) was 2.523. For the same compound, the “Z Abs” value (Glycine, 6-weeks) was 1.891, the “Z Score” value (Glycine, 6-weeks) was 1.891 and the “Linear Ratio” value (Glycocholic acid, 6-weeks) was 2.270. For the same compound, the “VIP Score” value (Glycocholic acid, 6-weeks) was 1.956, the “Z Abs” value (Glycocholic acid, 6-weeks) was 1.945 and the “Z Score” value (Glycocholic acid, 6-weeks) was 1.945. For the same compound, the Decreased [7] was 0, the “Fold Enrichment (Obs/Exp)” value [7] was 2.0 and the “Fraction of Impact … (% of 119.7)” value [7] was 4%. For the same compound, the “Impact (Sum VIP Score)” value [7] was 4.3, the Increased [7] was 2 and the “Observed Hits in the Top 61 Metabolites” value [7] was 2. For the same compound, the Decreased [8] was 0, the “Fold Enrichment (Obs/Exp)” value [8] was 1.3 and the “Fraction of Impact … (% of 94.6)” value [8] was 2%. For the same compound, the “Impact (Sum VIP Score)” value [8] was 2.1, the Increased [8] was 1 and the “Observed Hits in the Top 48 Metabolites” value [8] was 1. The Decreased [9] was 0, the “Fold Enrichment (Obs/Exp)” value [9] was 0.6 and the “Fraction of Impact … (% of 119.7)” value [9] was 2%. For the same compound, the “Impact (Sum VIP Score)” value [9] was 2.1, the Increased [9] was 1 and the “Observed Hits in the Top 61 Metabolites” value [9] was 1. The “Linear Ratio” value (Guanidinoacetic acid, 6-weeks) was 1.217, the “VIP Score” value (Guanidinoacetic acid, 6-weeks) was 1.644 and the “Z Abs” value (Guanidinoacetic acid, 6-weeks) was 1.254. The “Z Score” value (Guanidinoacetic acid, 6-weeks) was 1.254, the “Linear Ratio” value [10] was 2.121 and the “VIP Score” value [10] was 1.911. The “Z Abs” value [10] was 1.220, the “Z Score” value [10] was 1.220 and the “Linear Ratio” value (Hippuric acid, 6-weeks) was 1.602. The “VIP Score” value (Hippuric acid, 6-weeks) was 1.559, the “Z Abs” value (Hippuric acid, 6-weeks) was 0.881 and the “Z Score” value (Hippuric acid, 6-weeks) was 0.881. For the same compound, the “Linear Ratio” value (Histamine, 6-weeks) was 1.219, the “VIP Score” value (Histamine, 6-weeks) was 2.279 and the “Z Abs” value (Histamine, 6-weeks) was 1.312. The “Z Score” value (Histamine, 6-weeks) was 1.312, the Decreased [11] was 0 and the “Fold Enrichment (Obs/Exp)” value [11] was 1.8. The “Fraction of Impact … (% of 119.7)” value [11] was 2%, the “Impact (Sum VIP Score)” value [11] was 1.8 and the Increased [11] was 1. For the same compound, the “Observed Hits in the Top 61 Metabolites” value [11] was 1, the Decreased [12] was 0 and the “Fold Enrichment (Obs/Exp)” value [12] was 2.2. For the same compound, the “Fraction of Impact … (% of 94.6)” value [12] was 2%, the “Impact (Sum VIP Score)” value [12] was 2.3 and the Increased [12] was 1. The “Observed Hits in the Top 48 Metabolites” value [12] was 1, the “Linear Ratio” value (Hydroxyproline, 6-weeks) was 1.210 and the “VIP Score” value (Hydroxyproline, 6-weeks) was 2.039. For the same compound, the “Z Abs” value (Hydroxyproline, 6-weeks) was 3.005, the “Z Score” value (Hydroxyproline, 6-weeks) was 3.005 and the Decreased (Krebs Cycle, 2-days) was 0.
